Where a name gives a salt, the structure may show the parent alone. Some results are limits rather than exact numbers.

The experiment has as its target human GluN1/GluN2B NMDA receptors (Homo sapiens, UniProt Q05586+Q13224). The experiment in a line: Cell-based calcium flux (FLIPR) assay on cloned human GluN1/GluN2B ion channels expressed in mammalian cells. The conditions noted are these: standard assay; glutamate ~EC40, 10 μM glycine; stable Tet-On cell line. The method, then:
5.3. Biological Assays: Effect of Compounds of Formula (I) on Cloned Human GluN1/GluN2B Ion Channels Expressed in Mammalian Cells
NMDA receptors are ion channels that are highly permeable to Ca^2+ ions, rendering it possible to monitor NMDA receptor function using cell-based calcium flux assay. In this assay, co-agonists glutamate and glycine are added to cells heterologously expressing human GluN1/GluN2B NMDA receptors to initiate cellular Ca^2+ influx. The time course of the changes in intracellular calcium is measured using a fluorescent dye and a FLIPR (Fluorometric Imaging Plate Reader) device.
Twenty four hours before measurements, the expression of the NMDA receptors in the stable cell line is induced with Tet-On inducible system in the presence of a non-selective NMDA receptor blocker. On the day of the experiment, cell culture media is carefully washed and the cells are loaded with Calcium 5 Dye Kit (Molecular Devices) in dye loading buffer containing 137 mM NaCl, 4 mM KCl, 2 mM CaCl2, 0.5 mM MgCl2 (standard assay) or 1.5 mM MgCl2 (HTS assay), 10 mM HEPES and 5 mM D-glucose; pH 7.4. After 1 h incubation at the room temperature, the dye is washed away with the assay buffer (137 mM NaCl (standard assay) or 150 mM (HTS assay), 4 mM KCl (standard assay) or 3 mM (HTS assay), 2 mM CaCl2, 0.01 mM EDTA, 10 mM HEPES and 5 mM D-glucose; pH 7.4) In the FLIPR TETRA reader, various concentrations of the test compounds are added to the cells for 5 min while fluorescence is monitored to detect potential agonist activity. Next, co-agonists, glutamate and glycine are added for another 5 minutes. The concentration of glutamate corresponding to ˜EC40 (standard assay) or EC40 (HTS assay) is used to maximize the assay's signal window and ability to detect NMDA receptor antagonists and negative allosteric modulators. A saturating concentration (10 μM) of glycine is also present in the assay. A non-selective NMDA receptor antagonist, (+)MK-801 is used as a positive control for antagonist activity. The fluorescent signal in the presence of test compounds is quantified and normalized to the signal defined by the appropriate control wells.

Chain of human GluN1/GluN2B NMDA receptors (Q13224 27-1484, other chains not shown): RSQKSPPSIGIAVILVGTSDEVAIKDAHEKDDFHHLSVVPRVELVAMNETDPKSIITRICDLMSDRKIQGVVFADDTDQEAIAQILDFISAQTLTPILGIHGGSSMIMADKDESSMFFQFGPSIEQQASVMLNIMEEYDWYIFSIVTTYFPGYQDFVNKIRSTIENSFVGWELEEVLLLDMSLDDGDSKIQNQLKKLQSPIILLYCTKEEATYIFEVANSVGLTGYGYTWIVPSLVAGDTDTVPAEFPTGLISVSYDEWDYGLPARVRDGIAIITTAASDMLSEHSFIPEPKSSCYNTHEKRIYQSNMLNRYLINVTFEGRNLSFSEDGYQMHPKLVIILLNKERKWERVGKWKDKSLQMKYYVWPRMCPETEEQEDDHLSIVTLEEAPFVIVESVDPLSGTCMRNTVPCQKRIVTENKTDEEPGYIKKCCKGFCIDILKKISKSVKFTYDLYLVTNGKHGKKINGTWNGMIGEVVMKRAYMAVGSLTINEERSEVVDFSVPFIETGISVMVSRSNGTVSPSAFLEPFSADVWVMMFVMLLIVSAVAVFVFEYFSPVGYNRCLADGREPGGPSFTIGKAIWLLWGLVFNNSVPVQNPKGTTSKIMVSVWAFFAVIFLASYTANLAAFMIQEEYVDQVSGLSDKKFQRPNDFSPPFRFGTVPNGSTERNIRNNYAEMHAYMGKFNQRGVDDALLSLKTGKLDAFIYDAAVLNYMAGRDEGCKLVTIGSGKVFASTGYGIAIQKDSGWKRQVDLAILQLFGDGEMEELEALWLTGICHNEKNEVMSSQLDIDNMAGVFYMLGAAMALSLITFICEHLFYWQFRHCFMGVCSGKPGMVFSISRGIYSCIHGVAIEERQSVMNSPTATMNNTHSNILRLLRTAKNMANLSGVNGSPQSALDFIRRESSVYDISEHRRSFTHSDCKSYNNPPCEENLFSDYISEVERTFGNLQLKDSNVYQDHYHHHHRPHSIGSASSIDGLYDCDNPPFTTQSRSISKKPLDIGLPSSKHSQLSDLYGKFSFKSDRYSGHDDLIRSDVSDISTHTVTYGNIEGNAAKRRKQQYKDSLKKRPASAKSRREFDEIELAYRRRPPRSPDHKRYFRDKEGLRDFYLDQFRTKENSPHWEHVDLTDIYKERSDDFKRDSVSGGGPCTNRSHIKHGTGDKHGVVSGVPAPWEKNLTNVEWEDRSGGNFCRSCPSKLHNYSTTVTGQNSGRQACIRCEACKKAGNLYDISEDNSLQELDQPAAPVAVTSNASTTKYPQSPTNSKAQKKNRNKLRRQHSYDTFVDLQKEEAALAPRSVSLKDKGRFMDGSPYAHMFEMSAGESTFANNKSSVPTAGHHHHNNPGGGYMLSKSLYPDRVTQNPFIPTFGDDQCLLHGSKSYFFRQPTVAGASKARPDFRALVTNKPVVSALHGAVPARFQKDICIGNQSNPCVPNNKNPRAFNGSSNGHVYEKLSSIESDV

Turning to `CC1(C)CCN(Cc2cncc(-c3ccc(F)c(OC(F)F)c3)c2)C(=O)O1` [Example 10, 3-[[5-[3-(Difluoromethoxy)-4-fluoro-phenyl]-3-pyridyl]methyl]-6,6-dimethyl-1,3-oxazinan-2-one], the IC50 was found to be 521 nM.

`CC(C)[C@@H]1COC(=O)N1Cc1cncc(-c2ccc(F)c(OC(F)F)c2)c1` [Example 11, (4R)-3-[[5-[3-(Difluoromethoxy)-4-fluoro-phenyl]-3-pyridyl]methyl]-4-isopropyl-oxazolidin-2-one]: the half-maximal inhibitory concentration (IC50) is > 3000 nM.

Consider `O=C1OC2(CCC2)CN1Cc1cncc(-c2ccc(F)c(OC(F)F)c2)c1` [Example 12, 6-[[5-[3-(Difluoromethoxy)-4-fluoro-phenyl]-3-pyridyl]methyl]-8-oxa-6-azaspiro[3.4]octan-7-one], for which the IC50 stood at 59 nM.

With `O=C1OC2(COC2)CN1Cc1cncc(-c2ccc(F)c(OC(F)F)c2)c1` [Example 13, 6-[[5-[3-(Difluoromethoxy)-4-fluoro-phenyl]-3-pyridyl]methyl]-2,8-dioxa-6-azaspiro[3.4]octan-7-one], the 50% inhibitory concentration (IC50) worked out at 39 nM.

Turning to `O=C1OC2(CCOCC2)CN1Cc1cncc(-c2ccc(F)c(OC(F)F)c2)c1` [Example 20, 2-[[5-[3-(Difluoromethoxy)-4-fluoro-phenyl]-3-pyridyl]methyl]-4,8-dioxa-2-azaspiro[4.5]decan-3-one], the IC50 was 267 nM.

`O=C1OC2(CNC2)CN1Cc1cncc(-c2ccc(F)c(C(F)F)c2)c1` [Example 21, 6-[[5-[3-(Difluoromethyl)-4-fluoro-phenyl]-3-pyridyl]methyl]-8-oxa-2,6-diazaspiro[3.4]octan-7-one Trifluoroacetate Salt]: the IC50 is 806 nM.

Consider `CC(C)[C@H]1COC(=O)N1Cc1cncc(-c2ccc(F)c(C(F)F)c2)c1` [Example 23, (4S)-3-[[5-[3-(Difluoromethyl)-4-fluoro-phenyl]-3-pyridyl]methyl]-4-isopropyl-oxazolidin-2-one], for which the IC50 came out at 2600 nM.

On to `O=C1OCc2ccccc2N1Cc1cncc(-c2ccc(F)c(C(F)F)c2)c1` [Example 24, 1-[[5-[3-(Difluoromethyl)-4-fluoro-phenyl]-3-pyridyl]methyl]-4H-3,1-benzoxazin-2-one], for which the concentration for half-maximal inhibition (IC50) was determined as 73 nM.

`O=C1OC2(CC2)CN1Cc1cncc(-c2ccc(F)c(C(F)F)c2)c1` [Example 29, 5-[[5-[3-(Difluoromethyl)-4-fluoro-phenyl]-3-pyridyl]methyl]-7-oxa-5-azaspiro[2.4]heptan-6-one]: the IC50 is 12 nM.

`CC1(C)CCN(Cc2cncc(-c3ccc(F)c(C(F)F)c3)c2)C(=O)O1` [Example 30, 3-[[5-[3-(Difluoromethyl)-4-fluoro-phenyl]-3-pyridyl]methyl]-6,6-dimethyl-1,3-oxazinan-2-one]: the IC50 amounted to 603 nM.

As to `CC(C)[C@@H]1COC(=O)N1Cc1cncc(-c2ccc(F)c(C(F)F)c2)c1` [Example 31, (4R)-3-[[5-[3-(Difluoromethyl)-4-fluoro-phenyl]-3-pyridyl]methyl]-4-isopropyl-oxazolidin-2-one], the IC50 was > 3000 nM.

Take `O=C1OC2(CCC2)CN1Cc1cncc(-c2ccc(F)c(C(F)F)c2)c1` [Example 32, 6-[[5-[3-(Difluoromethyl)-4-fluoro-phenyl]-3-pyridyl]methyl]-8-oxa-6-azaspiro[3.4]octan-7-one]: the IC50 was found to be 26 nM.

For the molecule `C[C@@H]1CN(Cc2cncc(-c3ccc(F)c(C(F)F)c3)c2)C(=O)O1` [Example 33, (5R)-3-[[5-[3-(Difluoromethyl)-4-fluoro-phenyl]-3-pyridyl]methyl]-5-methyl-oxazolidin-2-one], the concentration for half-maximal inhibition (IC50) worked out at 16 nM.

Regarding `O=C1OC2(COC2)CN1Cc1cncc(-c2ccc(F)c(C(F)F)c2)c1` [Example 34, 6-[[5-[3-(Difluoromethyl)-4-fluoro-phenyl]-3-pyridyl]methyl]-2,8-dioxa-6-azaspiro[3.4]octan-7-one], the 50% inhibitory concentration (IC50) worked out at 30 nM.

Turning to `O=C1OC2(CCOCC2)CN1Cc1cncc(-c2ccc(F)c(C(F)F)c2)c1` [Example 42, 2-[[5-[3-(Difluoromethyl)-4-fluoro-phenyl]-3-pyridyl]methyl]-4,8-dioxa-2-azaspiro[4.5]decan-3-one], the IC50 turned out to be 108 nM.

With `O=C1OC2(CNC2)CN1Cc1cncc(-c2ccc(F)c(OC(F)F)c2)c1` [Example 43, 6-[[5-[3-(Difluoromethoxy)-4-fluoro-phenyl]-3-pyridyl]methyl]-8-oxa-2,6-diazaspiro[3.4]octan-7-one Trifluoroacetate Salt], the IC50 came out at 2620 nM.

For the molecule `Cc1cc(-c2cncc(CN3CCOC3=O)c2)ccc1F` [Example 44, 3-[[5-(4-Fluoro-3-methyl-phenyl)-3-pyridyl]methyl]oxazolidin-2-one], the IC50 worked out at 12 nM.

`Cc1c(F)ccc(-c2cncc(CN3CCOC3=O)c2)c1F` [Example 45, 3-[[5-(2,4-Difluoro-3-methyl-phenyl)-3-pyridyl]methyl]oxazolidin-2-one]: the 50% inhibitory concentration (IC50) was determined as 9 nM.

As for `O=C1OCCN1Cc1cncc(-c2cccc(C(F)(F)F)c2)c1` [Example 46, 3-[[5-[3-(Trifluoromethyl)phenyl]-3-pyridyl]methyl]oxazolidin-2-one], the 50% inhibitory concentration (IC50) turned out to be 26 nM.

`O=C1OCCN1Cc1cncc(-c2ccc(Cl)c(OC(F)F)c2)c1` [Example 47, 3-[[5-[4-Chloro-3-(difluoromethoxy)phenyl]-3-pyridyl]methyl]oxazolidin-2-one]: the IC50 is 11 nM.

On to `O=C1OCCN1Cc1cncc(-c2ccc(OC(F)(F)F)c(F)c2)c1` [Example 48, 3-[[5-[3-Fluoro-4-(trifluoromethoxy)phenyl]-3-pyridyl]methyl]oxazolidin-2-one], for which the IC50 was found to be 912 nM.

Take `CC(F)(F)c1cc(-c2cncc(CN3CCOC3=O)c2)ccc1F` [Example 49, 3-[[5-[3-(1,1-Difluoroethyl)-4-fluoro-phenyl]-3-pyridyl]methyl]oxazolidin-2-one]: the half-inhibitory concentration (IC50) worked out at 30 nM.

`O=C1OCCN1Cc1cncc(-c2cccc(C(F)(F)F)n2)c1` [Example 50, 3-[[5-[6-(Trifluoromethyl)-2-pyridyl]-3-pyridyl]methyl]oxazolidin-2-one]: the IC50 was 786 nM.

For `O=C1OCCN1Cc1cncc(-c2ccnc(C(F)(F)F)c2)c1` [Example 51, 3-[[5-[2-(Trifluoromethyl)-4-pyridyl]-3-pyridyl]methyl]oxazoidin-2-one], the half-maximal inhibitory concentration (IC50) stood at 1000 nM.

Consider `O=C1OCCCN1Cc1cncc(-c2ccc(F)c(C(F)(F)F)c2)c1` [Example 52, 3-[[5-[4-Fluoro-3-(trifluoromethyl)phenyl]-3-pyridyl]methyl]-1,3-oxazinan-2-one], for which the concentration for half-maximal inhibition (IC50) was 27 nM.

As to `[2H]C([2H])(c1cncc(-c2ccc(F)c(OC(F)F)c2)c1)N1CCCOC1=O` [Example 55, 3-[Dideuterio-[5-[3-(difluoromethoxy)-4-fluoro-phenyl]-3-pyridyl]methyl]-1,3-oxazinan-2-one], the concentration for half-maximal inhibition (IC50) was determined as 12 nM.

Turning to `[2H]C([2H])(c1cc(-c2ccc(F)c(OC(F)F)c2)cnc1C)N1CCCOC1=O` [Example 56, 3-[Dideuterio-[5-[3-(difluoromethoxy)-4-fluoro-phenyl]-2-methyl-3-pyridyl]methyl]-1,3-oxazinan-2-one], the IC50 was found to be 9 nM.

Consider `[2H]C([2H])(c1cc(-c2ccc(F)c(C)c2)cnc1C)N1CCCOC1=O` [Example 57, 3-[Dideuterio-[5-(4-fluoro-3-methyl-phenyl)-2-methyl-3-pyridyl]methyl]-1,3-oxazinan-2-one], for which the IC50 was 23 nM.

Take `[2H]C([2H])(c1cc(-c2ccc(F)c(C(F)F)c2)cnc1C)N1CCCOC1=O` [Example 58, 3-[Dideuterio-[5-[3-(difluoromethyl)-4-fluoro-phenyl]-2-methyl-3-pyridyl]methyl]-1,3-oxazinan-2-one]: the IC50 came out at 25 nM.

Take `[2H]C([2H])(c1cc(-c2ccc(F)c(C(F)F)c2)cnc1C)N1CCOC1=O` [Example 59, 3-[Dideuterio-[5-[3-(difluoromethyl)-4-fluoro-phenyl]-2-methyl-3-pyridyl]methyl]oxazolidin-2-one]: the IC50 was found to be 13 nM.

Regarding `Cc1ncc(-c2cccc(C(F)F)c2)cc1CN1CCCOC1=O` [Example 62, 3-[[5-[3-(Difluoromethyl)phenyl]-2-methyl-3-pyridyl]methyl]-1,3-oxazinan-2-one], the 50% inhibitory concentration (IC50) is 128 nM.

For the molecule `Cc1ncc(-c2cccc(OC(F)F)c2)cc1CN1CCCOC1=O` [Example 63, 3-[[5-[3-(Difluoromethoxy)phenyl]-2-methyl-3-pyridyl]methyl]-1,3-oxazinan-2-one], the half-inhibitory concentration (IC50) came out at 174 nM.

Take `Cc1ncc(-c2cccc(Cl)c2)cc1CN1CCCOC1=O` [Example 64, 3-[[5-(3-Chlorophenyl)-2-methyl-3-pyridyl]methyl]-1,3-oxazinan-2-one]: the half-inhibitory concentration (IC50) amounted to 406 nM.
